Here are results for one compound from PMC9496228, “Plasma Clearance of Intravenously Infused Adrenomedullin in Rats with Acute Renal Failure” (Biomolecules, 2022).

Where two headings read alike, the source gives them in different places.

A short description of series [1]: Human adrenomedullin 60-min continuous intravenous infusion study in rats, plasma pharmacokinetics. It counts as in vivo, rat. The conditions noted are these: mean ± SD; for level at time molar at 1 h / half-life / clearance: male, Lewis, rat, in vivo; for level at time molar at 1 h: 0.1 ug/kg/min, hAM iv infusion 0.1 µg/kg/min, read-out: Plasma AM concentration at 60 min after initiating treatment (AM C60); for half-life: read-out: T1/2β, half-life in the terminal phase after stopping infusion; for clearance: hAM iv infusion 0.1 µg/kg/min for 60 min, dose divided by AUC0–60, read-out: CLtotal, total systemic clearance. The procedure: Renal dysfunction was induced by subcutaneous injection of 3 mg/kg mercury chloride (1 mg/mL saline) to rats (RD-Ag, n = 7) on the day before the adrenomedullin pharmacokinetic study. Control rats were treated with saline (normal renal function, NF, n = 5). Twenty-four hours after injection of mercury chloride (4 h before hAM administration), blood was collected from the tail vein of rats and serum creatinine (sCr) was measured using DRI-CHEM (FUJIFILM, Tokyo, Japan) to confirm the severity of renal damage. After the hAM administration study, the lungs and kidneys were removed from each group of rats, immersed in RNAlater (Thermo Fisher Scientific, Waltham, MA, USA), and frozen at −30 °C for later analysis.
Rats were subjected to cannulation at the beginning as described below. After laparotomy through a midline abdominal incision, the bilateral renal artery and vein of the rat were exposed and blocked with vascular clips to develop another model of renal dysfunction (RD-Bl, n = 3). Immediately after the vascular blockade, the rats were studied for hAM infusion experiment.
Rats under isoflurane anesthesia were placed on a heated surgical table in the supine position and subjected to cannulation (PE 50, Becton, Dickinson and Company, Franklin Lakes, NJ, USA) of the carotid artery and jugular vein. Human AM was dissolved in 20% mannitol to a concentration of 300 ng/mL and continuously administered at 0.1 µg/kg/min for 60 min via venous cannula using an infusion pump (KDS-100, KD Scientific, Holliston, MA, USA). After hAM administration had begun, 0.6 mL of whole blood was drawn from the arterial cannula at 0, 5, 10, 20, 30, 45, 60, 61.5, 63, 65, 70, 75, 80, and 90 min.
(§1) To measure plasma hAM concentrations, whole blood was collected with 2 mg/mL EDTA-2Na and 500 Kallikrein Inhibitory Units (KIU)/mL of aprotinin. Plasma was obtained by centrifugation at 10,000× g for 2 min at 4 °C and stored at −30 °C until the assays were performed. Plasma hAM concentration was measured using an automated immunoassay system (AIA-System, Tosoh Corporation, Tokyo, Japan) that was described previously, including intra- and inter-assay variations. This system is a one-step fluorescence sandwich immunoassay for the detection of human AM using two monoclonal antibodies against human AM(12–25) and AM(46–52).
Pharmacokinetic parameters in rats were calculated from individual plasma AM concentration vs time curves during and after 1 h intravenous infusion of hAM based on standard procedures. The area under the plasma concentration vs time curve (AUC0–60) was calculated during the first 60 min using a linear trapezoidal method, and the total systemic clearance (CLtotal) was calculated as the dose administered divided by AUC0–60. A plot of plasma concentration vs time after stopping hAM infusion yielded a biexponential curve. The elimination rate constant and half-life (T1/2β) in the terminal phase were calculated from individual plasma AM concentration vs time curves with a two-compartment model using the Solver tool in Microsoft Excel to minimize the sum of the squared residual values. Weighting was set to the standard deviation of plasma concentrations measured at each blood sampling point.

Series [2] can be described thus: Human adrenomedullin intraperitoneal administration study in E-RAMP2 KO and control mice, plasma concentration. The conditions noted are these: mouse, in vivo, ip, 50 ug/kg, mean ± SD, read-out: Plasma AM concentration; for level at time molar at 10 min: 10 min after 50 μg/kg hAM intraperitoneally; for level at time molar at 0.5 h: 30 min after 50 μg/kg hAM intraperitoneally. The procedure:
E-RAMP2 KO mice (aged 9–10 weeks) were generated by intraperitoneal administration of 75 mg/kg tamoxifen suspended in corn oil (20 mg/mL) once daily for five consecutive days. Mice of the same strain treated only with corn oil were used as a control group. Three to four mice were prepared for each blood collection point.
as §1

Series [3] concerns the target AM receptor (CLR and RAMP2 or -3 heterodimeric receptors). The conditions noted are these: read-out: equilibrium dissociation constant for its receptor (Kd); cited from earlier work. The source says: Therefore, the administered AM appears to bind almost exclusively to its receptor and undergo receptor-mediated clearance. The AM receptor is made up of CLR and RAMP2 or -3 heterodimeric receptors. RAMP2 or -3 is a molecular chaperone required for CLR transport to the cell surface as well as for specifying the affinity of CLR for AM [35]. The distribution of ^125I-labeled AM in ...

Where [4] appears, read: RD-Bl rats (bilateral renal blood flow blockage, n = 3).

With `CC[C@H](C)[C@H](NC(=O)[C@H](CCC(N)=O)NC(=O)[C@H](Cc1c[nH]cn1)NC(=O)[C@H](C)NC(=O)[C@H](CC(C)C)NC(=O)[C@H](CCCCN)NC(=O)[C@H](CCC(N)=O)NC(=O)[C@@H](NC(=O)[C@@H](NC(=O)[C@@H]1CSSC[C@H](NC(=O)CNC(=O)[C@H](Cc2ccccc2)NC(=O)[C@H](CO)NC(=O)[C@H](CCCNC(=N)N)NC(=O)[C@H](CC(C)C)NC(=O)CNC(=O)[C@H](CCC(N)=O)NC(=O)[C@H](Cc2ccccc2)NC(=O)[C@H](CC(N)=O)NC(=O)[C@H](CC(N)=O)NC(=O)[C@H](CCSC)NC(=O)[C@H](CO)NC(=O)[C@H](CCC(N)=O)NC(=O)[C@H](CCCNC(=N)N)NC(=O)[C@@H](N)Cc2ccc(O)cc2)C(=O)N[C@@H](CCCNC(=N)N)C(=O)N[C@@H](Cc2ccccc2)C(=O)NCC(=O)N[C@@H]([C@@H](C)O)C(=O)N1)[C@@H](C)O)C(C)C)C(=O)N[C@@H](Cc1ccc(O)cc1)C(=O)N[C@@H](CCC(N)=O)C(=O)N[C@@H](Cc1ccccc1)C(=O)N[C@H](C(=O)N[C@@H](CC(=O)O)C(=O)N[C@@H](CCCCN)C(=O)N[C@@H](CC(=O)O)C(=O)N[C@@H](CCCCN)C(=O)N[C@@H](CC(=O)O)C(=O)N[C@@H](CC(N)=O)C(=O)N[C@H](C(=O)N[C@@H](C)C(=O)N1CCC[C@H]1C(=O)N[C@@H](CCCNC(=N)N)C(=O)N[C@@H](CO)C(=O)N[C@@H](CCCCN)C(=O)N[C@H](C(=O)N[C@@H](CO)C(=O)N1CCC[C@H]1C(=O)N[C@@H](CCC(N)=O)C(=O)NCC(=O)N[C@@H](Cc1ccc(O)cc1)C(N)=O)[C@@H](C)CC)C(C)C)[C@@H](C)O` [AM, Human adrenomedullin], the “T1/2β, half-life in the terminal phase after stopping infusion” value in series [1] (RD-Ag rats (mercury chloride, n = 7), after 60-min iv infusion of hAM 0.1 µg/kg/min, two-compartment model) is 22.2 ± 9.8 min. The level at time molar at 1 h in series [1] (setting [4]) was found to be 0.0781 ± 0.0105 nM; in series [1] (iv, NF rats (n = 5)), 0.049 ± 0.0136 nM; in series [1] (iv, RD-Ag rats (mercury chloride, n = 7)) it was 0.162 ± 0.0887 nM. Moreover, the half-life is 15 ± 1.4 min in series [1] (iv, 0.1 µg/kg/min, NF rats (n = 5), after 60-min iv infusion of hAM 0.1 µg/kg/min, two-compartment model) and 16.7 ± 1.8 min in series [1] (RD-Bl rats (bilateral renal blood flow blockage, n = 3), after 60-min iv infusion of hAM 0.1 µg/kg/min, two-compartment model). The clearance worked out at 752 ± 230 mL/min/kg in series [1] (iv, 0.1 µg/kg/min, NF rats (n = 5)); 192 ± 102 mL/min/kg in series [1] (iv, 0.1 µg/kg/min, RD-Ag rats (mercury chloride, n = 7)); 450 ± 68.9 mL/min/kg in series [1] (setting [4]). In addition, the level at time molar at 10 min came out at 3.98 ± 0.381 nM in series [2] (E-RAMP2 KO mice (n = 3–4)) and 1.07 ± 0.595 nM in series [2] (control mice (Cont, n = 3–4)). The level at time molar at 0.5 h in series [2] (E-RAMP2 KO mice (n = 3–4)) was 0.759 ± 0.234 nM; in series [2] (control mice (Cont, n = 3–4)) it was 0.118 ± 0.0737 nM. In series [3], the dissociation constant (Kd) was 0.3 to 0.6 nM.
